Experimental data reported in patent US20200378993A1, “MEDICAL USES OF APOLIPOPROTEIN A AND ACTIVATORS THEREOF” (FUNDACIÓN IMDEA ALIMENTACIÓN, priority 2017, published 2020).

What was measured:
Format in all cases: cell-based, human
DLD1 cells [1] = assay: Cell viability and proliferation assay (XCELLigence)
Description: (§1) Cell viability and proliferation assays were carried out by means of XCELLigence technology (ACEA Biosciences, Inc.) following the manufacturer's indications. Migration and invasion assays were carried out in Corning® BioCoat™ Control plates (#354578) and Corning® BioCoat™ Matrigel plates (#354480), respectively, following the manufacturer's indications. For the rescue assays, the cells were treated for 72 hours with 30 μM apabetalone (RVX-208; Biovision). Antibodies: ABCA1 (Ab18180, Abcam. 1:500); caveolin-1 (Ab2910, Abcam. 1:1000); α-tubulin (T9026, Sigma 1:1000). The DLD1 cells correspond to a human colorectal cancer-derived adherent epithelial cell line (ATCC® CCL-221™). The stable cell lines capable of overexpressing ABCA1 were obtained by means of transduction with genetically modified lentivirus.
(§2) Following the same treatment regimen, the inventors carried out migration and invasion assays.
(§3) The same assays were repeated by replacing ApoA1 with a treatment with RVX-208. In this case, DLD1 cells were pre-treated for 72 hours before the start of the experiment with RVX-208 at a concentration of 30 μm and were subjected to a treatment with 15 μM of RVX-208 during the development of the experiments.
(§4) For the purpose of confirming that the effects of RVX-208 in cell phenotype recovery were due to the increase in ApoA-1 expression, the inventors inhibited the expression of said protein by means of transfection of a complementary small RNA, ShApoA1 (FIG. 9). Twenty-four hours after transfection with ShApoA1 expression vector, the inventors started treatment with 30 μM of RVX-208. Cell viability and proliferation in DLD1 cells (D_NoORF) and D1D1 cell lines expressing increased ApoA1 levels (D_ApoA1 ) were analyzed with the xCELLigence system.

DLD1_ABCA1 cells = assay: Invasion assay (Corning BioCoat Matrigel plates); settings: Rvx-208 with ApoA1 silenced by shApoA1; cells with high ABCA1 levels
Description: FIG. 6. A) Proliferation curve in a viability assay carried out by means of XCELLigence technology. The results for the stable cell line overexpressing ABCA1 in the absence and presence of ApoA1 are shown. The cells were treated for 72 hours before the experiment with 40 μg/ml of ApoA1 and with a concentration of 20 μg/ml during acquisition. B) Migration and invasion assays. The method followed was the same as the one described in FIG. 1. (**p-value=0.003; ****p-value<0.0001). C) ABCA1 messenger RNA level (left panel) and ABCA1 protein level (right panel) in the presence and absence of treatment with ApoA1. […]
The inventors were able to confirm said results based on the treatment of DLD1 cells expressing ABCA1 with RVX-208 under the conditions already described in detail in Example 3. […] The levels of caveolin-1, a protein whose increased levels have been associated with increases in cell migration and invasion, were also analyzed in this experiment.
as §4, with “Twenty-four hours after transfection with ShApoA1 expression vector, the inventors started treatment with 30 μM of RVX-208.” left out

[2] = test system: D1D1 cell lines expressing increased ApoA1 levels (D_ApoA1); assay: Cell viability and proliferation (xCELLigence) with ShApoA1/scramble transfection; settings: 30 μM RVX-208, ApoA1 expression not inhibited (Scr+Rvx-208); D_ApoA1 cells
Description: FIG. 9: A) Proliferation curve in a viability assay carried out by means of XCELLigence technology. Growth of DLD1 cells treated with DMSO as the drug carrier and with Rvx-208 (30 μM). Control cells (scramble, SCR) are shown in black. Cells transfected with anti-ApoA1 short hairpin are shown in gray. The significant differences existing in the values of the slope of the graphs on the left-hand side, and therefore in the growth dynamics of the treated cells, are shown in the right panels (*p-value=0.0471; **p-value=0.0067; ****p-value<0.0001). B) Invasion assays in cells with silenced ApoA1 expression. For the purpose of confirming that the effects of RVX-208 in cell phenotype recovery were due to the increase in ApoA-1 expression, the inventors inhibited the expression of said protein by means of transfection of a complementary small RNA, ShApoA1 (FIG. 9). Twenty-four hours after transfection with ShApoA1 expression vector, the inventors started treatment with 30 μM of RVX-208. Cell viability and proliferation in DLD1 cells (D_NoORF) and D1D1 cell lines expressing increased ApoA1 levels (D_ApoA1 ) were analyzed with the xCELLigence system.

apolipoprotein A1 = assay: ApoA1 immunodetection by Western blot; settings: RVX-208 (30 μM) versus DMSO carrier
Description: FIG. 7. A) Proliferation curve in a viability assay carried out by means of XCELLigence technology. Growth of DLD1 cells treated with DMSO as the drug carrier and with Rvx-208 (30 μM). The significant differences existing in the slope of the graph, and therefore in the growth dynamics of the treated cells are shown in the right panel (****p-value<0.0001). B) Migration and invasion assays. The method followed was the same as the one described in FIG. 2 (*p-value=0.0407; ****p-value<0.0001). C) Expression levels of proteins E-cadherin and Vimentin in the presence and absence of Rvx-208. Analysis performed by means of quantitative PCR. The relative expression levels normalized with respect to the untreated control are shown. D) ABCA1, ApoA1, caveolin-1, and α-tubulin immunodetection by means of Western blot. α-tubulin acts as load control. The results of the cells treated with Rvx-208 (30 μM) or with the DMSO carrier are shown. E) Cholesterol flux in cells treated with Rvx-208. The inventors were able to confirm said results based on the treatment of DLD1 cells expressing ABCA1 with RVX-208 under the conditions already described in detail in Example 3. […] The levels of caveolin-1, a protein whose increased levels have been associated with increases in cell migration and invasion, were also analyzed in this experiment.

DLD1 cells [3] = assay: Invasion assay (Corning BioCoat Matrigel plates)
Description: as §1, §2, §3, §4

## COc1cc(OC)c2c(=O)[nH]c(-c3cc(C)c(OCCO)c(C)c3)nc2c1 [RVX-208, 2-(4-(2-hydroxyethoxy)-3,5-dimethylphenyl)-5,7-dimethoxyquinazolin-4(3H)-one]
DLD1 cells [1]; 30 μM RVX-208, ApoA1 expression not inhibited (Scr+Rvx-208), DLD1 cells (D_NoORF)
  proliferation indices: significantly lower
DLD1 cells [1]; RVX-208 pre-treatment 72 hours at 30 μm, 15 μM during experiment, DLD1 cells
  proliferative capacity: significant decrease in proliferative capacity
DLD1_ABCA1 cells
  effectiveness of treatment in terms of a decrease in cell invasion capacities: reduces the effectiveness of treatment
[2]
  proliferation indices: significantly lower
Apolipoprotein A1
  apolipoprotein A1 expression levels: increase in apolipoprotein A1 expression levels
DLD1 cells [3]; RVX-208 30 μm 72 hours then 15 μM, DLD1 cells
  invasive capacity: significant decreases the migratory and invasive capacity
DLD1 cells [3]; Rvx-208 with ApoA1 silenced by shApoA1, control cells
  effectiveness of treatment in terms of a decrease in cell invasion capacities: reduces the effectiveness of treatment
